Test systems include TK-10 renal; RXF 393 renal; SK-OV-3 ovarian; A498 renal; NCI-H522 lung; UO-31 renal; PC-3 prostate; NCI-H460 lung; SK-MEL-5 melanoma; NCI-H23 lung.
Common to all, as to assay: growth of human tumour cells (NCI), 48 h

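96-well plates; 48 h exposure; 5 concentrations. Endpoints by linear interpolation between flanking doses. Not reached: highest tested concentration assigned. GI50 = concentration required for 50% inhibition of growth. The concentration for full growth arrest is given as TGI.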 A value given as a limit tells only on which side of the number the result lay.

Drawing on PubChem BioAssay (NCI), this text covers TGI and GI50 for 9 molecules.

Turning to `O=C1/C(=C/c2ccc(O)c(O)c2)CCC/C1=C\c1ccc(O)c(O)c1`, the TGI in the assay on TK-10 renal is 14.9 µM; with RXF 393 renal, 9.5 µM; in the assay with SK-OV-3 ovarian, 20.7 µM; in the assay with A498 renal, 21.1 µM; with NCI-H522 lung, 2.22 µM; in the assay with UO-31 renal, 4.34 µM. Moreover, the TGI turned out to be 19 µM in the assay on PC-3 prostate, 20.1 µM in the assay on NCI-H460 lung, 3.81 µM with SK-MEL-5 melanoma and 11.3 µM with NCI-H23 lung.
Consider `COC(=O)/C=C1\S/C(=N\NC(=O)c2cc3ccc2/C=C\c2ccc(cc2)/C=C\3)N(c2ccccc2)C1=O`, for which the GI50 is 2.03 µM in the assay on TK-10 renal; 1.52 µM in the assay on RXF 393 renal; 3.55 µM with SK-OV-3 ovarian; 4.89 µM in the assay on NCI-H522 lung; 1.53 µM with UO-31 renal; 1.71 µM in the assay on PC-3 prostate. Further, the GI50 in the assay on NCI-H460 lung was 2.08 µM; in the assay on SK-MEL-5 melanoma, 7.56 µM; in the assay with NCI-H23 lung, 1.95 µM. Moreover, the TGI is 5.6 µM in the assay on TK-10 renal; 3.86 µM with RXF 393 renal; 75.3 µM in the assay on SK-OV-3 ovarian; over 100 µM in the assay on NCI-H522 lung; 3.08 µM in the assay with UO-31 renal; 3.63 µM in the assay with PC-3 prostate. In addition, the TGI with NCI-H460 lung was 4.29 µM; with SK-MEL-5 melanoma it was over 100 µM; with NCI-H23 lung, 4.15 µM.
As to `CCN1/C(=C\c2cc[n+](CC)c3ccccc23)C=Cc2ccccc21`, the GI50 in the assay with TK-10 renal was 0.448 µM; with RXF 393 renal it was 0.333 µM; in the assay with SK-OV-3 ovarian it was 0.236 µM; in the assay on A498 renal it was 0.187 µM; in the assay with NCI-H522 lung, 0.197 µM; with UO-31 renal, 1.89 µM. For the same molecule, the GI50 was 0.117 µM in the assay on PC-3 prostate, 0.193 µM with NCI-H460 lung, 0.0605 µM with SK-MEL-5 melanoma and 0.0871 µM with NCI-H23 lung. Further, the TGI in the assay with TK-10 renal is 13.7 µM; in the assay on RXF 393 renal, 4.27 µM; in the assay on SK-OV-3 ovarian it was 11.4 µM; in the assay with A498 renal, 2.78 µM; in the assay on NCI-H522 lung, 10.3 µM; with UO-31 renal it was 8.1 µM. The TGI in the assay with PC-3 prostate was determined as 1.85 µM; in the assay on NCI-H460 lung, 1.09 µM; in the assay on SK-MEL-5 melanoma, 0.215 µM; with NCI-H23 lung it was 7.56 µM.
Turning to `COc1ccc2c(c1)sc1nc(-c3ccccc3)c(-c3cccc4ccccc34)n12`, the GI50 in the assay with TK-10 renal was 5.17 µM; in the assay on RXF 393 renal, 0.249 µM; in the assay with SK-OV-3 ovarian it was 0.369 µM; with A498 renal, 0.601 µM; with NCI-H522 lung, 0.661 µM; in the assay on UO-31 renal, 1.34 µM. Moreover, the GI50 in the assay with PC-3 prostate was 0.5 µM; in the assay with NCI-H460 lung, 0.416 µM; in the assay with SK-MEL-5 melanoma, 0.233 µM; with NCI-H23 lung, 1.21 µM. Moreover, the TGI in the assay with TK-10 renal is over 100 µM; in the assay with RXF 393 renal, 1.29 µM; with SK-OV-3 ovarian, 2.79 µM; in the assay with A498 renal, over 30 µM; with NCI-H522 lung, 28.2 µM; in the assay on UO-31 renal, over 100 µM. Moreover, the TGI was over 100 µM in the assay on PC-3 prostate, over 35.2 µM in the assay with NCI-H460 lung, 0.856 µM with SK-MEL-5 melanoma and over 100 µM in the assay with NCI-H23 lung.
As to `O=C1NC(=NCCc2cccc(F)c2)S/C1=C\c1ccc2ncccc2c1`, the GI50 in the assay on TK-10 renal is over 12.4 µM; in the assay with RXF 393 renal it was 4.4 µM; in the assay with SK-OV-3 ovarian it was 4.38 µM; in the assay with A498 renal, 3.89 µM; in the assay with NCI-H522 lung it was 3.59 µM; in the assay with UO-31 renal, 16.7 µM. Further, the GI50 with PC-3 prostate was over 25 µM; in the assay on NCI-H460 lung, 1.39 µM; in the assay on SK-MEL-5 melanoma, 3.41 µM; in the assay on NCI-H23 lung, 19.2 µM. Moreover, the TGI in the assay on TK-10 renal was over 25 µM; in the assay with RXF 393 renal, over 25 µM; in the assay with SK-OV-3 ovarian, over 25 µM; in the assay on A498 renal it was over 25 µM; in the assay with NCI-H522 lung, 24.9 µM; in the assay with UO-31 renal, over 25 µM. Also, the TGI in the assay with PC-3 prostate, in the assay with NCI-H460 lung, with SK-MEL-5 melanoma and with NCI-H23 lung was over 25 µM in each case.
For the molecule `COc1ccc(CC2c3cc4c(cc3CCN2C)OCO4)c(C=O)c1OC` (stereo not given), the TGI with TK-10 renal, in the assay on SK-OV-3 ovarian, in the assay with A498 renal, in the assay on NCI-H522 lung, with UO-31 renal and in the assay with PC-3 prostate was over 100 µM in each case. In addition, the TGI in the assay with NCI-H460 lung, in the assay with SK-MEL-5 melanoma and in the assay with NCI-H23 lung was over 100 µM throughout.
With `CCOC1Oc2ccccc2C(=O)/C1=C/Nc1ccc(C(C)=O)cc1` (stereo not given), the GI50 with RXF 393 renal was 27 µM; in the assay with SK-OV-3 ovarian, 44.4 µM; in the assay on NCI-H522 lung, 27.1 µM; in the assay with UO-31 renal, 27.9 µM; in the assay with PC-3 prostate it was 25.4 µM; with NCI-H460 lung it was 32.8 µM. Further, the figures for the GI50 in the assay with SK-MEL-5 melanoma and in the assay on NCI-H23 lung were 19.1 µM and 13.9 µM, respectively. Further, the TGI in the assay with RXF 393 renal is 72.6 µM; in the assay on SK-OV-3 ovarian, over 100 µM; in the assay on NCI-H522 lung, 87.3 µM; with UO-31 renal it was over 100 µM; with PC-3 prostate, 93.3 µM; with NCI-H460 lung it was over 100 µM. The TGI with SK-MEL-5 melanoma was 43 µM; in the assay with NCI-H23 lung, 36.2 µM.
With `OCCN(CCO)c1ncnc2c1ncn2Cc1ccc(CCl)cc1`, the GI50 in the assay with TK-10 renal is 17.1 µM; in the assay with RXF 393 renal, 12 µM; in the assay on A498 renal, 14.2 µM; in the assay on NCI-H522 lung, 18.5 µM; in the assay on UO-31 renal it was 14.9 µM; in the assay with PC-3 prostate, 14 µM. Moreover, the GI50 in the assay with NCI-H460 lung is 14.2 µM; with SK-MEL-5 melanoma, 10.9 µM; in the assay on NCI-H23 lung, 18.3 µM. Moreover, the TGI in the assay with TK-10 renal was determined as 33.4 µM; in the assay with RXF 393 renal it was 37.1 µM; in the assay on A498 renal it was 28.1 µM; in the assay with NCI-H522 lung, 46.6 µM; with UO-31 renal it was 31 µM; in the assay with PC-3 prostate it was 33.7 µM. Also, the values for the TGI in the assay with NCI-H460 lung, in the assay on SK-MEL-5 melanoma and with NCI-H23 lung were 30.8 µM, 23.3 µM and 37.1 µM, respectively.
For `O=C(CCNC12CC3CC(CC(C3)C1)C2)c1ccccc1`, the TGI in the assay on TK-10 renal came out at 39.6 µM; in the assay with RXF 393 renal, 53.5 µM; in the assay with A498 renal, 62.9 µM; in the assay on NCI-H522 lung, 32 µM; in the assay with UO-31 renal it was 77.6 µM; in the assay on PC-3 prostate it was 50.5 µM. For the same molecule, the TGI stood at 69.6 µM in the assay on NCI-H460 lung, 32.7 µM with SK-MEL-5 melanoma and 48.8 µM with NCI-H23 lung.
